Measured values taken from ChEMBL document CHEMBL4725420, “Selective DYRK1A Inhibitor for the Treatment of Neurodegenerative Diseases: Alzheimer, Parkinson, Huntington, and Down Syndrome” (ACS Med Chem Lett, 2020).

Molecular target: Dual specificity tyrosine-phosphorylation-regulated kinase 1A (Homo sapiens, UniProt Q13627)
Experiment: Binding affinity to DYRK1A (unknown origin)

Row | Kd | Structure (SMILES)
1 | 0.5 nM | NC(=O)c1ccc(-n2cnc3ccc(-c4ccncc4)c(F)c32)nc1
2 | 0.5 nM | O=C(O)c1ccc(-n2cnc3ccc(-c4ccncc4)nc32)cc1
3 | 0.5 nM | CC(=O)N1C[C@@H]2[C@H](C1)[C@H]2n1c(C)nc2ccc(-c3ccncc3)nc21
4 | 0.5 nM | Fc1c(-c2ccncc2)ccc2ncn(-c3ccc4c(c3)OCO4)c12
5 | 101 nM | CC(=O)N1CC[C@H](n2c(C)nc3ccc(-c4ccncc4)nc32)C1
6 | 0.5 nM | c1cc(-c2ccc3ncn(-c4ccc5c(c4)OCO5)c3n2)ccn1
7 | 0.5 nM | Cc1nc2ccc(-c3ccncc3)nc2n1-c1ccc2c(c1)OCC(=O)N2
8 | 0.5 nM | COC(=O)c1ccc(-n2cnc3ccc(-c4ccncc4)c(F)c32)cc1
9 | 0.5 nM | Cc1nc2ccc(-c3cnn(C4CC4)c3)nc2n1-c1ccc(N2CCOCC2)c(F)c1
10 | 0.5 nM | Cc1nc2ccc(-c3ccncc3)nc2n1-c1ccc(CN2CCOCC2)cc1
